Results taken from patent publication US8129371B2, “Thienopyrimidine and pyrazolopyrimidine compounds and their use as mTOR kinase and PI3 kinase inhibitors” (Wyeth LLC, priority 2007, dated 2012).

Experiments:
Human mTOR (FLAG-TOR) = target: T1, Human mTOR (FLAG-TOR) (Homo sapiens, UniProt P42345); test: Human mTOR kinase assay with purified enzyme, DELFIA format; type: biochemical
T1 construct: FLAG
In short: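 Purified FLAG-mTOR in HEPES pH 7.4 buffer with 10 mM MnCl2 was preincubated with inhibitor and reacted 2 h at room temperature with His6-S6K substrate, then stopped with EDTA/EGTA. Phospho-T389 S6K detected by DELFIA with Eu-labelled antibody (40 ng/mL) after plate capture; inhibition computed from signal.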

PI3K [1] = target: T2, PI3K (Homo sapiens, UniProt P42336); test: Fluorescence polarization assay for PI3K; type: biochemical; conditions: PI3 Kinase α; read-out: PI3 Kinase α IC50
T2 construct: PI3 Kinase α IC50; other: PI3 Kinase α; other: PI3 Kinase α isoform, fluorescence polarization
T2 sequence (P42336 whole entry, canonical isoform): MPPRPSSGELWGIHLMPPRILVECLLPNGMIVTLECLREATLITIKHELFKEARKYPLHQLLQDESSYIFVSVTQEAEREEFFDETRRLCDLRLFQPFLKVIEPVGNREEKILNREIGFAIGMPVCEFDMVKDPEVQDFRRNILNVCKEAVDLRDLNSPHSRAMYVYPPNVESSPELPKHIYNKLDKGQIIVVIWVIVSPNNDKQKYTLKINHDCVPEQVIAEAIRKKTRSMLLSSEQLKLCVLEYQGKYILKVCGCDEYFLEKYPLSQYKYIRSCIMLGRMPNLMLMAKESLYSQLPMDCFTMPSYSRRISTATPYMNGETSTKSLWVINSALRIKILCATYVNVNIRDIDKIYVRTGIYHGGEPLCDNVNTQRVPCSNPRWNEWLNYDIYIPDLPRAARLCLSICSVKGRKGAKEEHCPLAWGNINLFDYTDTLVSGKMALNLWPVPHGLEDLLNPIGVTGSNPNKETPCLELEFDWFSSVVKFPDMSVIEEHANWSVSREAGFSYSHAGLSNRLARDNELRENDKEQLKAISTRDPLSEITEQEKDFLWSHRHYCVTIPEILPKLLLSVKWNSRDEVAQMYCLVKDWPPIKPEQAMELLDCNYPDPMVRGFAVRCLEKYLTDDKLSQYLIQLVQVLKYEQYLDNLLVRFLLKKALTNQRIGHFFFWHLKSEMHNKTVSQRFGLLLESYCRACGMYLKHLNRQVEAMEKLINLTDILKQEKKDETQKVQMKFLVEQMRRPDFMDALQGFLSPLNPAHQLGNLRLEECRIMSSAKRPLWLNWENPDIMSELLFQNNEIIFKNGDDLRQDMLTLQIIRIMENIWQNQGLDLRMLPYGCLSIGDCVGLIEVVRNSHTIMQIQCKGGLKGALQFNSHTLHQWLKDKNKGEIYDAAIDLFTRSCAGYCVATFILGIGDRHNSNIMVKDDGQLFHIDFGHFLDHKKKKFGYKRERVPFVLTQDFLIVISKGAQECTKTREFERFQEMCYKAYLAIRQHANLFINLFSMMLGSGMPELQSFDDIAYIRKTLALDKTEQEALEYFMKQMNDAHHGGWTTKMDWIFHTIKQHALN
In short: (§1)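 PI3K was preincubated with compound (final DMSO 1%), and the reaction was started with PIP2/ATP substrate and run 30–60 min. It was stopped with a detector mix giving 10 nM red probe and 70 nM GST-GRP.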

PI3K [2] = target: T3, PI3K (Homo sapiens, UniProt P48736); test: Fluorescence polarization assay for PI3K; type: biochemical; conditions: PI3 Kinase γ; read-out: PI3 Kinase γ IC50
T3 construct: PI3 Kinase γ IC50; other: PI3 Kinase γ; other: PI3 Kinase γ isoform, fluorescence polarization
T3 sequence (P48736 whole entry, canonical isoform): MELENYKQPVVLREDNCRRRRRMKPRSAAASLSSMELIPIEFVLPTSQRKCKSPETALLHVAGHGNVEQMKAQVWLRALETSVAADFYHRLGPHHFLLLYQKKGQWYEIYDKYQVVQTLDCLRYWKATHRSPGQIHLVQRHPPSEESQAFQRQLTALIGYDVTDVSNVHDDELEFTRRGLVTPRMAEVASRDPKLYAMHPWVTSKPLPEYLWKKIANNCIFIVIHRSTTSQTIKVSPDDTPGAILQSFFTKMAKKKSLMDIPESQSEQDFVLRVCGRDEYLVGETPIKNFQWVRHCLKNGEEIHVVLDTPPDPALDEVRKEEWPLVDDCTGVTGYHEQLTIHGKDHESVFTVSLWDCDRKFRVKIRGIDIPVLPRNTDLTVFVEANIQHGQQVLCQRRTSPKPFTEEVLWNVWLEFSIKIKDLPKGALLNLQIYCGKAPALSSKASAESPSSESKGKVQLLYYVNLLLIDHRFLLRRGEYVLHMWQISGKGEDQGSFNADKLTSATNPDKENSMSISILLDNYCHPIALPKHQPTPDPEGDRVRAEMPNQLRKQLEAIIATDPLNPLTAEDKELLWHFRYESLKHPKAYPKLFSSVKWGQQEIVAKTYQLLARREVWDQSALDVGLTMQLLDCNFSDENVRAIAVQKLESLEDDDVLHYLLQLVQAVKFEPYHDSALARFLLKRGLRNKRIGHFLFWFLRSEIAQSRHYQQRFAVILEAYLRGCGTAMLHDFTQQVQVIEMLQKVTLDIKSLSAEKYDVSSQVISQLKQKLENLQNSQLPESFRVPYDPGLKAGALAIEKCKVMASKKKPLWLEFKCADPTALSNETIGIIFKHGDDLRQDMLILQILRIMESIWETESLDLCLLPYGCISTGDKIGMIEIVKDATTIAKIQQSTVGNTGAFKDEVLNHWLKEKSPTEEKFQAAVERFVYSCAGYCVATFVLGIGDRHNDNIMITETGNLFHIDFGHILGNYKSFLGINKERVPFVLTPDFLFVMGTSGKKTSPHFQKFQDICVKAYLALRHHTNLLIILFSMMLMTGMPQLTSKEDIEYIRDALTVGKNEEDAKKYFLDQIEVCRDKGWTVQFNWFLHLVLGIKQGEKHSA
In short: as §1

prostate line LNCap = test: In vitro cell culture growth assay (MTS), LNCap; type: cell-based; conditions: Homo sapiens, LNCaP, 72 h, LNCap cells, three days after drug treatment
In short: (§2)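 Inhibitors were added one day after plating, and viable cells were measured 3 days later by MTS conversion (absorbance 490 nm).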

breast line MDA468 = test: In vitro cell culture growth assay (MTS), MDA468; type: cell-based; conditions: Homo sapiens, 72 h, MDA468 cells, three days after drug treatment
In short: as §2

Row | SMILES | IC50 (Human mTOR (FLAG-TOR)) | IC50 (PI3K [1]) | IC50 (PI3K [2]) | IC50 (prostate line LNCap) | IC50 (breast line MDA468)
1 | CC(C)C(=O)N1CCC(n2ncc3c(N4CC5CCC(C4)O5)nc(-c4ccc(NC(=O)Nc5ccccc5)cc4)nc32)CC1 [Example 87, 1-{4-[1-(1-isobutyrylpiperidin-4-yl)-4-(8-oxa-3-azabicyclo[3.2.1]oct-3-yl)-1H-pyrazolo[3,4-d]pyrimidin-6-yl]phenyl}-3-phenylurea] | 0.8 nM | 396 nM | 7020 nM | 30 nM | 120 nM
2 | CC(C)C(=O)N1CCC(n2ncc3c(N4CC5CCC(C4)O5)nc(-c4ccc(NC(=O)Nc5cccnc5)cc4)nc32)CC1 [Example 88, 1-{4-[1-(1-isobutyrylpiperidin-4-yl)-4-(8-oxa-3-azabicyclo[3.2.1]oct-3-yl)-1H-pyrazolo[3,4-d]pyrimidin-6-yl]phenyl}-3-pyridin-3-ylurea] | 0.3 nM | 454 nM | 3820 nM | 60 nM | 130 nM
3 | CC(C)C(=O)N1CCC(n2ncc3c(N4CC5CCC(C4)O5)nc(-c4ccc(NC(=O)Nc5ccncc5)cc4)nc32)CC1 [Example 89, 1-{4-[1-(1-isobutyrylpiperidin-4-yl)-4-(8-oxa-3-azabicyclo[3.2.1]oct-3-yl)-1H-pyrazolo[3,4-d]pyrimidin-6-yl]phenyl}-3-pyridin-4-ylurea] | 0.26 nM | 301 nM | 2380 nM | 15 nM | 63 nM
4 | O=C(Nc1ccc(-c2nc(N3CC4CCC(C3)O4)c3cnn(C4CCCCO4)c3n2)cc1)Nc1cccnc1 (centres unmarked) [Example 90, 1-{4-[4-(8-oxa-3-azabicyclo[3.2.1]oct-3-yl)-1-(tetrahydro-2H-pyran-2-yl)-1H-pyrazolo[3,4-d]pyrimidin-6-yl]phenyl}-3-pyridin-3-ylurea] | 0.39 nM | 412 nM | 4330 nM | 12 nM | 60 nM
5 | O=C(Nc1ccc(-c2nc(N3CC4CCC(C3)O4)c3cn[nH]c3n2)cc1)Nc1cccnc1 [Example 91, 1-{4-[4-(8-oxa-3-azabicyclo[3.2.1]oct-3-yl)-1H-pyrazolo[3,4-d]pyrimidin-6-yl]phenyl}-3-pyridin-3-ylurea] | 0.49 nM | 306 nM | 2640 nM | 500 nM | 120 nM
6 | COC(=O)Nc1ccc(-c2nc(N3CC4CCC(C3)O4)c3cnn(C(C)(C)C)c3n2)cc1 [Example 92] | 11.7 nM | > 10000 nM | > 10000 nM | 1800 nM | 30000 nM
7 | CNC(=O)Nc1ccc(-c2nc(N3CC4CCC(C3)O4)c3cnn(C(C)(C)C)c3n2)cc1 [Example 93] | 0.41 nM | 202 nM | > 10000 nM | 23 nM | 170 nM
8 | CCNC(=O)Nc1ccc(-c2nc(N3CC4CCC(C3)O4)c3cnn(C(C)(C)C)c3n2)cc1 [Example 94] | 0.51 nM | 804 nM | > 10000 nM | 50 nM | 490 nM
9 | CC(C)(C)n1ncc2c(N3CC4CCC(C3)O4)nc(-c3ccc(NC(=O)NCCF)cc3)nc21 [Example 95] | 0.61 nM | 1060 nM | > 10000 nM | 17 nM | 280 nM
10 | CC(C)(C)n1ncc2c(N3CC4CCC(C3)O4)nc(-c3ccc(NC(=O)NC4CC4)cc3)nc21 [Example 96] | 0.4 nM | 1140 nM | > 10000 nM | 1700 nM | > 60000 nM
11 | CC(C)(C)n1ncc2c(N3CC4CCC(C3)O4)nc(-c3ccc(NC(=O)NCCO)cc3)nc21 [Example 97] | 0.34 nM | 282 nM | 9500 nM | 20 nM | 180 nM
12 | CC(C)(C)n1ncc2c(N3CC4CCC(C3)O4)nc(-c3ccc(NC(=O)OCCO)cc3)nc21 [Example 98] | 0.98 nM | 1420 nM | > 10000 nM | 90 nM | 620 nM
13 | CC(C)(C)n1ncc2c(N3CC4CCC(C3)O4)nc(-c3ccc(NC(=O)Nc4ccccc4)cc3)nc21 [Example 99] | 1.8 nM | 130 nM | 577 nM | 68 nM | 280 nM
14 | CC(C)(C)n1ncc2c(N3CC4CCC(C3)O4)nc(-c3ccc(NC(=O)Nc4cccnc4)cc3)nc21 [Example 100] | 0.63 nM | 149 nM | 794 nM | 20 nM | 130 nM
15 | CC(C)(C)n1ncc2c(N3CC4CCC(C3)O4)nc(-c3ccc(NC(=O)Nc4ccncc4)cc3)nc21 [Example 101] | 0.53 nM | 178 nM | 727 nM | 19 nM | 110 nM
16 | Oc1cccc(-c2nc(N3CC4CCC(C3)O4)c3cnn(-c4ccccc4)c3n2)c1 [Example 102, 3-[4-(8-oxa-3-azabicyclo[3.2.1]oct-3-yl)-1-phenyl-1H-pyrazolo[3,4-d]pyrimidin-6-yl]phenol] | 16 nM | 1170 nM | 7820 nM | 1300 nM | 5000 nM
17 | CCOC(=O)N1CCC(n2ncc3c(N4CC5CCC(C4)O5)nc(-c4ccc(NC(=O)NC5CCNCC5)cc4)nc32)CC1 [Example 103, ethyl 4-[4-(8-oxa-3-azabicyclo[3.2.1]oct-3-yl)-6-{4-[(piperidin-4-ylcarbamoyl)amino]phenyl}-1H-pyrazolo[3,4-d]pyrimidin-1-yl]piperidine-1-carboxylate] | 6.8 nM | 874 nM | 1100 nM | 5000 nM | 11000 nM
18 | CNC(=O)Nc1ccc(-c2nc(N3CC4CCC(C3)O4)c3cnn(C4CCC(=O)CC4)c3n2)cc1 [Example 106, 1-(4-(4-(8-oxa-3-azabicyclo[3.2.1]octan-3-yl)-1-(4-oxocyclohexyl)-1H-pyrazolo[3,4-d]pyrimidin-6-yl)phenyl)-3-methylurea] | 0.22 nM | 1300 nM | > 10000 nM | 32 nM | 110 nM
19 | CNC(=O)Nc1ccc(-c2nc(N3CC4CCC(C3)O4)c3cnn(C4CCC(O)CC4)c3n2)cc1 (centres unmarked) [Example 107, 1-(4-(4-(8-oxa-3-azabicyclo[3.2.1]octan-3-yl)-1-(4-hydroxycyclohexyl)-1H-pyrazolo[3,4-d]pyrimidin-6-yl)phenyl)-3-methylurea] | 0.24 nM | 1310 nM | 5000 nM | 48 nM | 190 nM
20 | CCOC(=O)Nc1ccc(-c2nc(N3CC4CCC(C3)O4)c3cnn(C4CCN(C(=O)OC)CC4)c3n2)cc1 [Example 111, methyl 4-[6-{4-[(ethoxycarbonyl)amino]phenyl}-4-(8-oxa-3-azabicyclo[3.2.1]oct-3-yl)-1H-pyrazolo[3,4-d]pyrimidin-1-yl]piperidine-1-carboxylate] | 8.5 nM | 3340 nM | 12000 nM | 700 nM | 6000 nM
21 | COC(=O)N1CCC(n2ncc3c(N4CC5CCC(C4)O5)nc(-c4ccc(NC(=O)OCCO)cc4)nc32)CC1 [Example 112, methyl 4-[6-(4-{[(2-hydroxyethoxy)carbonyl]amino}phenyl)-4-(8-oxa-3-azabicyclo[3.2.1]oct-3-yl)-1H-pyrazolo[3,4-d]pyrimidin-1-yl]piperidine-1-carboxylate] | 0.75 nM | 1260 nM | > 10000 nM | 40 nM | 1050 nM
22 | COCCOC(=O)Nc1ccc(-c2nc(N3CC4CCC(C3)O4)c3cnn(C4CCN(C(=O)OC)CC4)c3n2)cc1 [Example 113, methyl 4-[6-(4-{[(2-methoxyethoxy)carbonyl]amino}phenyl)-4-(8-oxa-3-azabicyclo[3.2.1]oct-3-yl)-1H-pyrazolo[3,4-d]pyrimidin-1-yl]piperidine-1-carboxylate] | 225 nM | 7510 nM | > 10000 nM | 2700 nM | 30000 nM
23 | COC(=O)N1CCC(n2ncc3c(N4CC5CCC(C4)O5)nc(-c4ccc(NC(=O)OCCN)cc4)nc32)CC1 [Example 114, methyl 4-[6-(4-{[(2-aminoethoxy)carbonyl]amino}phenyl)-4-(8-oxa-3-azabicyclo[3.2.1]oct-3-yl)-1H-pyrazolo[3,4-d]pyrimidin-1-yl]piperidine-1-carboxylate] | 36.5 nM | 1430 nM | 7480 nM | 4000 nM | 6000 nM
24 | COC(=O)N1CCC(n2ncc3c(N4CC5CCC(C4)O5)nc(-c4ccc(NC(=O)OCCN(C)C)cc4)nc32)CC1 [Example 115, methyl 4-{6-[4-({[2-(dimethylamino)ethoxy]carbonyl}amino)phenyl]-4-(8-oxa-3-azabicyclo[3.2.1]oct-3-yl)-1H-pyrazolo[3,4-d]pyrimidin-1-yl}piperidine-1-carboxylate] | 360 nM | 5060 nM | 8930 nM | 1600 nM | 4600 nM
25 | COC(=O)N1CCC(n2ncc3c(N4CC5CCC(C4)O5)nc(-c4ccc(NC(=O)OCCN5CCCC5)cc4)nc32)CC1 [Example 116, methyl 4-[4-(8-oxa-3-azabicyclo[3.2.1]oct-3-yl)-6-(4-{[(2-pyrrolidin-1-ylethoxy)carbonyl]amino}phenyl)-1H-pyrazolo[3,4-d]pyrimidin-1-yl]piperidine-1-carboxylate] | 335 nM | 2660 nM | 6740 nM | 1700 nM | 4000 nM
